Experimental data reported in patent US20260356803A1, “Nicotinamide derivatives” (Board of Regents, The University of Texas System, priority 2024, published 2026).

What was measured:
Schwann cells = settings: cited from earlier work
[1] = tested on: NAMPT activity in S462 cells; experiment: NMN levels in S462 cells (NAMPT activity in cells); type: cell-based, human; settings: regular DMEM, increasing concentrations of 9, compared with FK866
[2] = Co-treatment of 9 with sublethal FK866; type: cell-based
Experimental: These observations, taken together, support the hypothesis that the activity of compound 9 depends on NAMPT and NMNAT1.
In 96-well assay plates (Corning #2903), 2,000 cells were plated per well in 100 μL of medium and allowed to adhere overnight. The next day, compounds or Nam suspended in DMSO were dispensed to the assayed wells using a D300e Digital Dispenser (Tecan). All wells were normalized to 0.5% DMSO. 72 hours after incubation at 37 °C in 5% CO2, cell viability was assayed using an ATP-based luminescent viability assay, CellTiter-Glo (Promega #G8462). CellTiter-Glo substrate was mixed 1:1 with phosphate-buffered saline (PBS) supplemented with 1% Triton X-100, and 40 μL of this mixture was added to the assay wells. After the plates were shaken on a microplate shaker for 10 minutes at room temperature, luminescence was recorded using a Synergy 2 Microplate Reader or Cytation 5 plate reader (BioTek). In Prism 9 software (GraphPad), ten-point dose response curves were plotted with baseline-correction to the vehicle control well, and IC50 values were calculated by curve fitting using asymmetric (five parameter), least squares fit.

iHCT116 cells = experiment: Forward genetics resistance selection (IAA-inducible mutagenesis); type: cell-based
Text: Second, we screened for resistance to 9 in iHCT116 cells, a system that uses inducible mutagenesis and forward genetics to find compound-resistant mutations and thus can reveal both loss of function and gain of function alleles that suppress activity. The iHCT116 system is a barcoded cell line in which we temporally control mutagenesis by the addition of indole acetic acid (IAA) mediated degradation of the mismatch repair protein MLH1.^12 MLN4924 is a small molecule toxin that we use as a positive control to verify that IAA treatment leads to increased mutations. By degrading MLH1 and increasing the overall mutation rate, IAA treatment increases the frequency of UBA3 mutations, leading to a higher rate of MLN4924 resistance. […] Having previously established a relationship between either NMNAT1 levels or NAMPT activity and compound resistance, we analyzed the levels of both enzymes in multiple resistant clones that harbored unique barcode sequences. […] To test whether reduced NMNAT1 levels in these clones contributed to resistance, we ectopically expressed NMNAT1 in either the parental cells or a representative resistant clone with low NMNAT1 expression.

resistant iHCT116 clones = experiment: Metabolism of 9 in resistant iHCT116 clones; type: cell-based; settings: parental and resistant clones
Text: The experiments described above are consistent with the model that both 1 and 9 are converted by NAMPT and NMNAT1 into their respective MN and AD metabolites. It remains unclear, however, which of these two metabolites is contributing to toxicity. To address this question, we measured 9 metabolism, 9-MN and 9-AD levels upon treatment of the resistant clones identified through forward genetics. […] Clones 5 and 7 were resistant to 9 but had normal NAMPT and NMINAT levels.
Prior to the experiment, cells were cultured in low-Nam DMEM for at least 1 passage (3 days) to deplete intracellular Nam. 15,000 cells were plated in a 96-well plate with 100 μL low-Nam media. At appropriate time points, 500 nM 1 or 9, or equal volume of vehicle (DMSO) were added using TECAN. 200 μL of acetonitrile with 0.1% formic acid were added to the assayed wells. For the 0-hour time point, compound or vehicle was added after the addition of acetonitrile and formic acid. Following incubation for 10 minutes at room temperature, samples were transferred to Eppendorf tubes and centrifuged at 20,000×g for 5 minutes. The supernatants were filtered through 0.2 μm PVDF filters and analyzed by LC-MS/TOF.

SARM1 = experiment: Cytotoxicity in SARM1-knockout versus wild type cells; type: cell-based; settings: SARM1-knockout vs wild type
Text: (§1) Given that vacor, 3-AP, and compound 21 are all metabolized to toxic, NAD-like derivatives through NAMPT and NMNAT, we hypothesized that their anti-cancer activity may also depend on SARM1. To test this, we compared the toxic effects of vacor, 3-AP, and 9 in either wild type cells or cells in which we used CRISPR to silence SARM1. […] These observations highlight that even though these different scaffolds are toxified through the same mechanism, the resulting metabolites may have different activities. We next co-titrated guanosine, which is known to rescue tiazofurin by bypassing IMPDH in guanylate synthesis, with each of the above small molecules. […] To test this hypothesis, we set up in vitro reactions with different combinations of 9, NAMPT and NMNAT. After incubation, metabolites were extracted, reconstituted in aqueous solution and then co-incubated with an established IMPDH2 enzyme assay.

IMPDH = experiment: Guanosine co-titration rescue; type: cell-based; settings: guanosine co-titrated
Text: as §1

[3] = biological target: T1, recombinant human inosine monophosphate dehydrogenase 2 (IMPDH2) (Homo sapiens, UniProt P12268); experiment: IMPDH2 enzyme assay with reaction extracts; type: biochemical; settings: role: inhibitor; extract of overnight reaction of 9 with NAMPT and NMNAT added at 40% v/v; 500 uM NAD, 250 uM IMP
T1 construct: NADH absorbance assay with extracts of NAMPT/NMNAT reactions
Text: as §1
IMPDH activity was measured by monitoring NADH production through the change in absorbance at […] as previously described [PMID: 13428767]. […] Absorbance was measured every 30 seconds for 30 minutes on a BioTek Cytation 5 plate reader (Agilent, USA) at 37 °C. IMPDH2 activity was determined from the slope of absorbance vs. time plots. […]

[4] = resistant clones with unique barcodes

metabolism of 9 over time (resistant iHCT116 clones) | inhibition of IMPDH activity [3] | Compound | toxicity to Schwann cells (Schwann cells) | NMN levels in S462 cells [1] | increase in IC50 of 9 with FK866 ([2]; addition of 278 pM FK866) [fold] | increase in IC50 of 9 with FK866 ([2]; addition of 833 pM FK866) [fold] | NAMPT levels in 9-resistant clones (iHCT116 cells; [4]) | NMNAT1 protein levels downregulated in 9-resistant clones (iHCT116 cells; [4]) | difference in number of surviving clones Mut-off vs Mut-on (iHCT116 cells; three lethal selection concentrations of 9) | sensitivity of SARM1-knockout cells (SARM1) | guanosine rescue of toxicity (IMPDH)
– | – | O=C(Nc1cccnc1)c1cccs1 [Compound 1, N-(pyridin-3-yl)thiophene-2-carboxamide] | nontoxic | – | – | – | – | – | – | – | –
metabolized over time | substantial inhibition | O=C(Nc1cccs1)c1cccnc1 [Compound 9, N-(Thiophen-2-yl)nicotinamide] | – | did not reduce the levels of NMN to the same extent as FK866 | 2.9 | 15.4 | the same in all clones | five out of eight clones | did not observe a substantial difference | equally sensitive | profound dose-dependent rescue
